Experimental data: patent US8697730B2, “5-lipoxygenase activating protein (FLAP) inhibitor” (Panmira Pharmaceuticals, LLC, priority 2007, dated 2014)
pIC50: −log10 of the molar value.

Legend:
CYP1A2 = target: T1, CYP1A2 (Homo sapiens, UniProt P05177); assay: biochemical
T1 sequence (P05177 1-516): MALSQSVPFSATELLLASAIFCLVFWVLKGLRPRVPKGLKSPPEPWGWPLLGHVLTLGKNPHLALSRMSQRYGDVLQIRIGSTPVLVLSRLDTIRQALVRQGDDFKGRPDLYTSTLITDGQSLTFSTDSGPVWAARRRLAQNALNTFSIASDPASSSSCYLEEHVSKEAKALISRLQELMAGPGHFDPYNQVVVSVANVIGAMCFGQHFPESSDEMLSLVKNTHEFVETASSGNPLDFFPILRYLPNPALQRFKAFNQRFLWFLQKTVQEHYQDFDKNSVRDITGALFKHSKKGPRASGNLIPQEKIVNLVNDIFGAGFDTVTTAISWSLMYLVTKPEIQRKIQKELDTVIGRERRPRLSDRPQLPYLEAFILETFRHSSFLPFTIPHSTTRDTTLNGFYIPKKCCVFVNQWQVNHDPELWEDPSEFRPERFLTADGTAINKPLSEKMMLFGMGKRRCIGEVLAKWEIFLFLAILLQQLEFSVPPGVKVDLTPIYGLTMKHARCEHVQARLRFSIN

CYP2C9 = CYP2C9 (Homo sapiens, UniProt P11712); assay: biochemical
[1] = Regional dosing study in rat; set-up: species or system Male Sprague-Dawley rats; conditions: in vivo
in vivo = conditions: male, Sprague-Dawley, rat, po
[2] = in vivo, po, 250 mg/kg
Protocol: Twenty-four hours following the final administration mice were placed into an enclosed Plexiglas chamber and exposed to CO2 for a period of 1-2 minutes or until breathing ceased. They were then removed and blood was taken via a cardiac puncture and cervical dislocation was performed. Subjects were next placed in a supine position and a midline incision made. All organs were inspected and the livers removed by careful dissection. Liver weights were recorded as well as any gross abnormalities.

Chain of CYP2C9 (P11712 whole entry): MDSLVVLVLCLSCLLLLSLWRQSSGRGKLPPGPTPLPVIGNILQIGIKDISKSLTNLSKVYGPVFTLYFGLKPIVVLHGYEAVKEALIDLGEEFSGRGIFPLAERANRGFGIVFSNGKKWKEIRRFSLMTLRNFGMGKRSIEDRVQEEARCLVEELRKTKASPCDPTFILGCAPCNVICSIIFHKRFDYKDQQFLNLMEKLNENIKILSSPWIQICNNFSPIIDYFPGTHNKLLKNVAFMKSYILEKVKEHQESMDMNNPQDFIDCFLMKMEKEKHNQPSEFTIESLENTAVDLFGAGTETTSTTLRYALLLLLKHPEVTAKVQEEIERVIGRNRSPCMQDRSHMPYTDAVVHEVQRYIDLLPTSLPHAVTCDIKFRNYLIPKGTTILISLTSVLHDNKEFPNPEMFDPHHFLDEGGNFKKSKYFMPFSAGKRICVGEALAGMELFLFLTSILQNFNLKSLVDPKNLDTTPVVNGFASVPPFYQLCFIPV

COc1ccc(-c2ccc(Cn3c(CC(C)(C)C(=O)O)c(SC(C)(C)C)c4cc(OCc5ccccn5)ccc43)cc2)cn1 [sodium 3-[5-(pyridin-2-ylmethoxy)-3-(2-methyl-2-propylthio)-1-[4-(2-methoxypyridin-5-yl)benzyl]-indol-2-yl]-2,2-dimethyl-propionate]
pIC50 (CYP1A2): < 4.30
pIC50 (CYP2C9): ≤ 4.30
site of absorption in words [1]: mainly absorbed in the upper gastrointestinal tract
Tmax (in vivo): ≥ 2 h
liver weight alteration ([2]; female, CD-1, mouse, 4 days): 9.1%
necropsy findings ([2]; mouse): no gross abnormalities
